Laboratory results as given in ChEMBL document CHEMBL4417631, “Oral peptide inhibitors of interleukin-23 receptor and their use to treat inflammatory bowel diseases” (2017).
Where a SMILES comes first, the peptide text is derived from it.

Molecular target: T1, Interleukin-23 receptor (Homo sapiens, UniProt Q5VWK5)
T1 sequence (Q5VWK5 whole entry): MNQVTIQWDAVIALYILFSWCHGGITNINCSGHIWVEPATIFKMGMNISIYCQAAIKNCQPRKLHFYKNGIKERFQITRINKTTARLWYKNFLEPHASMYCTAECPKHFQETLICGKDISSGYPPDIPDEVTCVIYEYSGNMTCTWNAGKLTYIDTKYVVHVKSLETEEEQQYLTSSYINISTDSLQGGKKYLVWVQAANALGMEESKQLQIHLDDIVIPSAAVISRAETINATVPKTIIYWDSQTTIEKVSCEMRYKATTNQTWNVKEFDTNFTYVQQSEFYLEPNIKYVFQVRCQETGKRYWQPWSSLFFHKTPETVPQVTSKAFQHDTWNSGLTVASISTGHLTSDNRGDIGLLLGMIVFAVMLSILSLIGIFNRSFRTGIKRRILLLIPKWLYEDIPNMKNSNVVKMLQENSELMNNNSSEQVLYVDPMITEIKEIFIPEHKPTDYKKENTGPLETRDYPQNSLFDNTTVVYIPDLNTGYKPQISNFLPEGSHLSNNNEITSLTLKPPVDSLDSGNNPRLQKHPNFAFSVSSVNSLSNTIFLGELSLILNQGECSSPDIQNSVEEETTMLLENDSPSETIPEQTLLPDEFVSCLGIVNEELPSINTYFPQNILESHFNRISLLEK
Experiment: Inhibition of interleukin-23 binding to human interleukin-23 receptor incubated for 2 hrs by competitive binding ELISA

Row | SMILES | IC50
1 | CC(=O)NC1CCC/C=C\CC(C(=O)N[C@@H](Cc2ccc(O)cc2)C(=O)N[C@@H](Cc2c[nH]c3ccccc23)C(=O)N[C@@H](CCCNC(=N)N)C(=O)N[C@@H](CCCCN)C(=O)N[C@@H](Cc2ccccc2)C(=O)NCC(=O)NCCOCC(=O)N[C@H](CCCCN)C(N)=O)NC(=O)[C@H](CCC(N)=O)NC(=O)[C@H](Cc2c[nH]c3ccccc23)NC(=O)[C@H]([C@@H](C)O)NC(=O)[C@H](CCCNC(=N)N)NC1=O (stereo partly specified) | 100 to 1000 nM
2 | NC(=O)CC[C@H](NC(=O)[C@@H](N)CS)C(=O)N[C@@H](CO)C(=O)N[C@@H](Cc1c[nH]c2ccccc12)C(=O)N[C@@H](CCC(=O)O)C(=O)N[C@@H](CS)C(=O)N[C@@H](Cc1ccc(O)cc1)C(=O)N[C@@H](Cc1c[nH]c2ccccc12)C(=O)N[C@@H](Cc1cnc[nH]1)C(=O)N[C@@H](Cc1ccc(O)cc1)C(=O)N[C@@H](Cc1ccc(O)cc1)C(=O)NCC(N)=O (H-CQSWECYWHYYG-NH2) | > 1000 nM
3 | CC(=O)N[C@@H](CS)C(=O)N[C@@H](CCC(N)=O)C(=O)N[C@H](C(=O)N[C@@H](Cc1c[nH]c2ccccc12)C(=O)N[C@@H](CCC(N)=O)C(=O)N[C@@H](CS)C(=O)N[C@H](C(=O)N[C@@H](Cc1c[nH]c2ccccc12)C(=O)N[C@@H](CCC(C)C)C(=O)N[C@@H](CCC(=O)O)C(=O)N[C@@H](CC(N)=O)C(=O)NCC(N)=O)[C@@H](C)O)[C@@H](C)O | > 30000 nM
4 | CC(=O)NCCCC[C@H](NC(=O)[C@](C)(CCCCN)NC(=O)[C@H](Cc1ccc2ccccc2c1)NC(=O)[C@H](Cc1ccc(Cl)c(Cl)c1)NC(=O)[C@@H](NC(=O)[C@H](CCC(N)=O)NC(=O)[C@H](Cc1c[nH]c2ccccc12)NC(=O)[C@@H](NC(=O)[C@H](CCC(N)=O)NC(=O)[C@@H](NC(C)=O)C(C)(C)S)[C@@H](C)O)C(C)(C)S)C(=O)N[C@@H](CC(N)=O)C(=O)NCC(N)=O | 100 to 1000 nM
5 | CC(=O)N[C@@H](CS)C(=O)N[C@@H](C)C(=O)N[C@@H](CC(=O)O)C(=O)N[C@@H](Cc1c[nH]c2ccccc12)C(=O)N[C@H](C(=O)N[C@@H](CS)C(=O)N[C@@H](Cc1ccc(O)cc1)C(=O)N[C@@H](Cc1ccc(C(N)=O)cc1)C(=O)N[C@@H](CCCN)C(=O)N[C@@H](CN)C(=O)N[C@@H](Cc1ccccc1)C(=O)NCC(=O)NCCOCC(=O)N[C@H](CCCCN)C(N)=O)C(C)C | 6000 nM
6 | CC(=O)N[C@@H](CS)C(=O)N[C@@H](CCC(N)=O)C(=O)N[C@H](C(=O)N[C@@H](Cc1c[nH]c2ccccc12)C(=O)N[C@@H](CCC(N)=O)C(=O)N[C@@H](CS)C(=O)N[C@@H](Cc1ccc(O)cc1)C(=O)N[C@H](CC(=O)N[C@@H](CCCNC(=N)N)C(=O)N[C@H](C(=O)N[C@@H](CC(N)=O)C(=O)NCC(=O)NCCOCC(=O)N[C@H](CCCCN)C(N)=O)C(C)C)Cc1ccc(O)cc1)[C@@H](C)O | > 30000 nM
7 | CC(=O)N[C@@H](CS)C(=O)N[C@@H](CCC(N)=O)C(=O)N[C@@H](CC(=O)O)C(=O)N[C@@H](Cc1c[nH]c2ccccc12)C(=O)N[C@@H](CCC(N)=O)C(=O)N[C@@H](CS)C(=O)N[C@@H](Cc1ccc(O)cc1)C(=O)N[C@@H](Cc1c[nH]c2ccccc12)C(=O)N[C@@H](CCCNC(=N)N)C(=O)N[C@@H](CCC(=O)O)C(=O)N[C@@H](CC(N)=O)C(=O)NCC(=O)NCCOCC(=O)N[C@H](CCCCN)C(N)=O | < 500 nM
8 | CC(=O)NCCCC[C@H](NC(=O)[C@](C)(CCCCN)NC(=O)[C@H](Cc1ccc2ccccc2c1)NC(=O)[C@H](Cc1ccc(-c2ccccc2)cc1)NC(=O)[C@@H](NC(=O)[C@H](CCC(N)=O)NC(=O)[C@H](Cc1c[nH]c2ccccc12)NC(=O)[C@@H](NC(=O)[C@H](CCC(N)=O)NC(=O)[C@@H](NC(C)=O)C(C)(C)S)[C@@H](C)O)C(C)(C)S)C(=O)N[C@@H](CC(N)=O)C(=O)NCC(N)=O | > 10000 nM
9 | CC(C)CC[C@H](NC(=O)[C@H](Cc1c[nH]c2ccccc12)NC(=O)[C@H](Cc1ccc(O)cc1)NC(=O)[C@H](CS)NC(=O)[C@H](CCC(N)=O)NC(=O)[C@H](Cc1c[nH]c2ccccc12)NC(=O)[C@@H](NC(=O)[C@H](CCC(N)=O)NC(=O)[C@@H](N)CS)[C@@H](C)O)C(=O)N[C@@H](CCC(=O)O)C(=O)N[C@@H](CC(N)=O)C(=O)NCC(=O)NCCOCC(=O)N[C@H](CCCCN)C(N)=O | < 500 nM

Second part, the compound after the results:

Row | IC50 | SMILES
10 | < 500 nM | CC(=O)N[C@@H](CS)C(=O)N[C@@H](C)C(=O)N[C@@H](CC(=O)O)C(=O)N[C@@H](Cc1c[nH]c2ccccc12)C(=O)N[C@H](C(=O)N[C@@H](CS)C(=O)N[C@@H](Cc1ccc(O)cc1)C(=O)N[C@@H](Cc1c[nH]c2ccccc12)C(=O)N[C@@H](Cc1cnc[nH]1)C(=O)N[C@H](C(=O)N[C@@H](Cc1ccccc1)C(=O)NCC(=O)N1CCC[C@H]1C(=O)N[C@H](CCCCN)C(=O)O)[C@@H](C)O)C(C)C
11 | > 1000 nM | CC(=O)N[C@H](CCCCN)C(=O)N[C@@H](CS)C(=O)N[C@@H](C)C(=O)N[C@@H](CC(=O)O)C(=O)N[C@@H](Cc1c[nH]c2ccccc12)C(=O)N[C@H](C(=O)N[C@@H](CS)C(=O)N[C@@H](Cc1ccc(O)cc1)C(=O)N[C@@H](Cc1c[nH]c2ccccc12)C(=O)N[C@@H](Cc1cnc[nH]1)C(=O)N[C@H](C(=O)N[C@@H](Cc1ccccc1)C(=O)NCC(=O)O)[C@@H](C)O)C(C)C
12 | > 1000 nM | CC(=O)N[C@H](CCCCN)C(=O)NCCC(=O)N[C@@H](CS)C(=O)N[C@@H](C)C(=O)N[C@@H](CC(=O)O)C(=O)N[C@@H](Cc1c[nH]c2ccccc12)C(=O)N[C@H](C(=O)N[C@@H](CS)C(=O)N[C@@H](Cc1ccc(O)cc1)C(=O)N[C@@H](Cc1c[nH]c2ccccc12)C(=O)N[C@@H](Cc1cnc[nH]1)C(=O)N[C@H](C(=O)N[C@@H](Cc1ccccc1)C(=O)NCC(=O)O)[C@@H](C)O)C(C)C
13 | < 500 nM | CC(=O)N[C@@H](CS)C(=O)N[C@@H](C)C(=O)N[C@@H](CC(=O)O)C(=O)N[C@@H](Cc1c[nH]c2ccccc12)C(=O)N[C@H](C(=O)N[C@@H](CS)C(=O)N[C@@H](Cc1ccc(O)cc1)C(=O)N[C@@H](Cc1c[nH]c2ccccc12)C(=O)N[C@@H](Cc1cnc[nH]1)C(=O)N[C@H](C(=O)N[C@@H](Cc1ccccc1)C(=O)NCC(=O)N[C@@H](C)C(=O)N[C@@H](C)C(=O)N[C@H](CCCCN)C(=O)O)[C@@H](C)O)C(C)C
14 | 500 to 1000 nM | CC(C)[C@H](NC(=O)[C@H](Cc1cnc[nH]1)NC(=O)[C@H](Cc1c[nH]c2ccccc12)NC(=O)[C@H](Cc1ccc(O)cc1)NC(=O)[C@H](CS)NC(=O)[C@@H](NC(=O)[C@H](Cc1c[nH]c2ccccc12)NC(=O)[C@H](CC(=O)O)NC(=O)[C@H](CO)NC(=O)[C@@H](N)CS)C(C)C)C(=O)N[C@@H](Cc1ccc(O)cc1)C(=O)NCC(N)=O (H-CSDWVCYWHVYG-NH2)
15 | > 1000 nM | CC(=O)N[C@@H](CS)C(=O)N[C@@H](C)C(=O)N[C@@H](CC(=O)O)C(=O)N[C@@H](Cc1c[nH]c2ccccc12)C(=O)N[C@H](C(=O)N[C@@H](CS)C(=O)N[C@@H](Cc1ccc(O)cc1)C(=O)N[C@@H](Cc1cccc2ccccc12)C(=O)N[C@@H](Cc1ccccc1)C(=O)N[C@H](C(=O)N[C@@H](Cc1ccccc1)C(=O)NCC(N)=O)[C@@H](C)O)C(C)C
16 | < 500 nM | CC(=O)N[C@@H](CS)C(=O)N[C@@H](C)C(=O)N[C@@H](CC(=O)O)C(=O)N[C@@H](Cc1c[nH]c2ccccc12)C(=O)N[C@H](C(=O)N[C@@H](CS)C(=O)N[C@@H](Cc1ccc(O)cc1)C(=O)N[C@@H](Cc1c[nH]c2ccccc12)C(=O)N[C@@H](Cc1cnc[nH]1)C(=O)N[C@H](C(=O)N[C@@H](Cc1ccccc1)C(=O)NCC(=O)NCCC(=O)N[C@H](CCCCN)C(=O)O)[C@@H](C)O)C(C)C
17 | > 1000 nM | CC(C)[C@H](NC(=O)[C@H](Cc1c[nH]c2ccccc12)NC(=O)[C@H](CC(=O)O)NC(=O)[C@H](C)NC(=O)[C@@H](N)CS)C(=O)N[C@@H](CS)C(=O)N[C@@H](Cc1ccc(O)cc1)C(=O)N[C@@H](Cc1cccc2ccccc12)C(=O)N[C@@H](Cc1cnc[nH]1)C(=O)N[C@H](C(=O)N[C@@H](Cc1ccccc1)C(=O)O)[C@@H](C)O
18 | > 1000 nM | CC(C)[C@H](NC(=O)[C@H](Cc1c[nH]c2ccccc12)NC(=O)[C@H](CC(=O)O)NC(=O)[C@H](C)NC(=O)[C@@H](N)CS)C(=O)N[C@@H](CS)C(=O)N[C@@H](Cc1ccc(O)cc1)C(=O)N[C@H](CC(=O)N[C@@H](Cc1cnc[nH]1)C(=O)N[C@H](C(=O)N[C@@H](Cc1ccccc1)C(=O)NCC(N)=O)[C@@H](C)O)Cc1c[nH]c2ccccc12
19 | > 1000 nM | CC(C)[C@H](NC(=O)[C@H](Cc1c[nH]c2ccccc12)NC(=O)[C@@H](NC(=O)[C@H](CCC(N)=O)NC(=O)[C@@H](N)CS)[C@@H](C)O)C(=O)N[C@@H](CS)C(=O)N[C@@H](Cc1ccc(O)cc1)C(=O)N[C@@H](Cc1c[nH]c2ccccc12)C(=O)N[C@@H](Cc1cnc[nH]1)C(=O)N[C@H](C(=O)N[C@@H](Cc1ccc(O)cc1)C(=O)NCC(N)=O)[C@@H](C)O (H-CQTWVCYWHTYG-NH2)
20 | > 1000 nM | CC(C)[C@H](NC(=O)[C@H](Cc1c[nH]c2ccccc12)NC(=O)[C@H](CC(=O)O)NC(=O)[C@H](C)NC(=O)[C@@H](N)CS)C(=O)N[C@@H](CS)C(=O)N[C@@H](Cc1ccc(O)cc1)C(=O)N[C@@H](Cc1c[nH]c2ccccc12)C(=O)N[C@@H](Cc1cnc[nH]1)C(=O)N[C@H](C(N)=O)[C@@H](C)O
21 | < 500 nM | CC(=O)N[C@@H](CS)C(=O)N[C@H](C(=O)N[C@H](C(=O)N[C@@H](Cc1c[nH]c2ccccc12)C(=O)N[C@@H](CCC(=O)O)C(=O)N[C@@H](CS)C(=O)N[C@@H](Cc1ccc(O)cc1)C(=O)N[C@@H](Cc1c[nH]c2ccccc12)C(=O)N[C@@H](Cc1cnc[nH]1)C(=O)N[C@@H](CCC(=O)O)C(=O)N[C@@H](Cc1ccc(O)cc1)C(=O)NCC(N)=O)[C@@H](C)O)[C@@H](C)O (Ac-CTTWECYWHEYG-NH2)
